{"source": "patent US5427922A", "about": "(Takeda Chemical Industries, Ltd., priority 1992, dated 1995)", "key": {"Ang II receptor": {"tested_on": "Ang II receptor", "settings": "cited from earlier work"}, "[1]": {"molecular_target": "T1, Ang II type 1 receptor of human placental origin (Homo sapiens, UniProt P30556)", "T1 sequence (P30556 1-359 Q187R/F204S/L205C/K232N/K240R/L268Q/C289W/R311K/Y312D/F313I)": "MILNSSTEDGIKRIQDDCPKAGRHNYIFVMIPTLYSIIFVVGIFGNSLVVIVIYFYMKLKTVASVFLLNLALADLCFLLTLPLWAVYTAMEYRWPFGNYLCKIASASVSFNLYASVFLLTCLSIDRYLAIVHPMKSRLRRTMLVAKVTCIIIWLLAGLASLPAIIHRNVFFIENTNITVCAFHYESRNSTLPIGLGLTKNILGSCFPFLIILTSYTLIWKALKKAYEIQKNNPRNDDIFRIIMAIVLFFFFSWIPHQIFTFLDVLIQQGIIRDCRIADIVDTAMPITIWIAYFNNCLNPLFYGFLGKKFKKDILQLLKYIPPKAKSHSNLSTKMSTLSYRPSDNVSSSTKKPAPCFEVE", "assay": "Binding of radiolabeled Ang II (competition) using membrane fraction of CHO/pHARp306 cells", "settings": "[125I]-Ang II, 22° C., 45 minutes", "quoted_text": "All measurements were performed in a series of three runs. […] An aliquot of membrane fraction equivalent to 10 μg of protein was suspended in a 0.1% (w/v) BSA solution containing 25 mM Tris (pH 7.6) and 5 mM magnesium chloride, to yield a 194 μl suspension. […] After 45 minutes of reaction, the reaction mixture was aspirated onto a glass filter, which was washed with 4 ml of ice-cooled Tris (pH 7.6), and the residual radioactivity on the glass filter was measured using a γ-ray counter. The final sample concentration was varied over a range of from 1 pM to 10 μM. In the measurement, the amount of non-specific binding was defined as 0%, and the maximum mount of binding in the absence of sample defined as 100%. With this regard, the -log (M) value of the sample concentration (M) resulting in 50% binding was defined as IC50 value."}, "[2]": {"molecular_target": "T2, Ang II type 1 receptor of human heart origin (Homo sapiens, UniProt P30556)", "T2 sequence (P30556 1-359)": "T1 sequence (P30556 1-359 Q187R/F204S/L205C/K232N/K240R/L268Q/C289W/R311K/Y312D/F313I) with R187Q, S204F, C205L, N232K, R240K, Q268L, W289C, K311R, D312Y, I313F", "assay": "Binding of radiolabeled Ang II (competition) using membrane fraction of control CHO/pHARt306 cells", "settings": "for Competition; IC50 [-log(M)]: membrane fraction of CHO/pHARt306 (human heart origin), [125I]-Ang II, 22° C., 45 minutes", "quoted_text": "All measurements were performed in a series of three runs. […] An aliquot of membrane fraction equivalent to 10 μg of protein was suspended in a 0.1% (w/v) BSA solution containing 25 mM Tris (pH 7.6) and 5 mM magnesium chloride, to yield a 194 μl suspension. […] After 45 minutes of reaction, the reaction mixture was aspirated onto a glass filter, which was washed with 4 ml of ice-cooled Tris (pH 7.6), and the residual radioactivity on the glass filter was measured using a γ-ray counter. The final sample concentration was varied over a range of from 1 pM to 10 μM. In the measurement, the amount of non-specific binding was defined as 0%, and the maximum mount of binding in the absence of sample defined as 100%. With this regard, the -log (M) value of the sample concentration (M) resulting in 50% binding was defined as IC50 value. A membrane fraction was also extracted from control CHO/pHARt306 cells in the same manner as above, and assayed using the same assay system."}, "type 1 receptors": {"tested_on": "type 1 receptors", "settings": "cited from earlier work"}, "[3]": {"tested_on": "reactions of KCl, norepinephrine, isoproterenol, vasopressin, bradykinin, acetylcholine or 5-HT", "settings": "at suppressive doses for a high concentration (10 μM) of Ang II; cited from earlier work"}, "ACE": {"tested_on": "ACE", "settings": "at suppressive doses for a high concentration (10 μM) of Ang II; cited from earlier work"}, "[4]": {"molecular_target": "T3, Ang II type 1 receptor from human placenta (Homo sapiens, UniProt P30556)", "T3 sequence (P30556 1-359 Q187R/F204S/L205C/K232N/K240R/L268Q/C289W/R311K/Y312D/F313I)": "T1 sequence (P30556 1-359 Q187R/F204S/L205C/K232N/K240R/L268Q/C289W/R311K/Y312D/F313I)", "assay": "Radio-labeled Ang II binding activity in animal cells (COS7/pHARp306) expressing full-length Ang II type 1 receptor gene from human placenta", "settings": "10 μM agonist or antagonist added; 100 pM [125I]-Ang II; room temperature, 60 minutes; control (none) 84,148 cpm", "quoted_text": "To each well of a 6 well petri dish, 2 ml of a DMEM medium (produced by DIFCO) containing 5% (v/v) FCS was added, and 5×10^4 COS7 cells were seeded. After incubation at 37° C. in the presence of 5% carbon dioxide for two days, the medium was aspirated and twice washed with DMEM medium."}, "type 2 receptors": {"tested_on": "type 2 receptors", "settings": "cited from earlier work"}, "[5]": {"molecular_target": "T4, full-length Ang II type 1 receptor of human placental origin (Homo sapiens, UniProt P30556)", "T4 sequence (P30556 1-359 Q187R/F204S/L205C/K232N/K240R/L268Q/C289W/R311K/Y312D/F313I)": "T1 sequence (P30556 1-359 Q187R/F204S/L205C/K232N/K240R/L268Q/C289W/R311K/Y312D/F313I)", "settings": "10 μM forskolin in place of Ang II; CHO/pHARp306", "quoted_text": "(§1) To each well of a 24 well petri dish, a DMEM medium containing 10% (v/v) dialyzed FCS and 35 μg/ml L-proline was added, and 1×10^5 CHO/pHAR306 cells were inoculated. […] After the reaction mixture was removed using an aspirator, 500 μl of a 5% (w/v) trichloroacetic acid solution was added to each well to stop the reaction. The amount of cAMP was measured by EIA (cAMP enzyme immunoassay system, produced by Amersham)."}, "[6]": {"molecular_target": "T5, full-length Ang II type 1 receptor of human heart origin (Homo sapiens, UniProt P30556)", "T5 sequence (P30556 1-359)": "T1 sequence (P30556 1-359 Q187R/F204S/L205C/K232N/K240R/L268Q/C289W/R311K/Y312D/F313I) with R187Q, S204F, C205L, N232K, R240K, Q268L, W289C, K311R, D312Y, I313F", "settings": "CHO/pHARt306", "quoted_text": "as §1"}, "[7]": {"molecular_target": "T4, full-length Ang II type 1 receptor of human placental origin", "assay": "Changes in intracellular inositol phosphate (IPs) concentration in CHO/pHARp306 cells", "assay_type": "cell-based", "quoted_text": "(§2) To each well of a 12 well petri dish, a DMEM medium containing 10% (v/v) dialyzed-FCS and 35 μg/ml L-proline was added, and 1×10^5 CHO/pHAR306 cells were inoculated. One day later, the medium was replaced with the same medium but containing 1 μCi/ml [^3 H]-labeled inositol (Amersham), and cultivation was continued for 24 hours. The petri dish was twice washed with a PBS buffer (FLOW Laboratories) containing 0.2% (w/v) BSA and then kept standing for 30 minutes, after which it was kept standing at 37° C. for 30 minutes in the presence of the same buffer but containing 10 mM lithium chloride. […] When the reaction time exceeded 30 seconds, the reaction mixture was removed using an aspirator, after which 1 ml of a 5% (w/v) trichloroacetic acid solution was added to each well to stop the reaction. When the reaction time was 5 to 30 seconds, 1 ml of a 10% (w/v) trichloroacetic acid solution was injected directly to each well to stop the reaction. The [^3 H]-labeled inositol phosphate (IPs) was separated using ion exchange column AG 1-X8 (Bio-Rad Laboratories). […] The radioactivity of each fraction was determined using a liquid scintillation counter."}, "[8]": {"molecular_target": "T4, full-length Ang II type 1 receptor of human placental origin", "assay": "Ang II binding activity of isolated CHO cell clone (method of Example 9)", "settings": "CHO/pHARp306 clone", "method": "After the mixture was thrice washed with TSMB buffer, cells were solubilized with 1N sodium hydroxide (1 ml), and their radioactivity was determined using a γ-ray counter."}, "[9]": {"molecular_target": "T5, full-length Ang II type 1 receptor of human heart origin", "settings": "CHO/pHARt306", "remark": "listed apart in the source", "quoted_text": "as §2"}, "[10]": {"tested_on": "full-length Ang II type 1 receptor from human placenta", "assay": "Change in intracellular calcium ion concentration in CHOdhfr-/pHARp206 cells (Fura-2AM fluorescence)", "assay_type": "cell-based", "settings": "final concentration 1 μM, 37° C.", "quoted_text": "To each of two collagen-treated slide glasses (1×4 cm) in a 6 cm petri dish, 4 ml of an ASF104 medium (produced by Ajinomoto) containing 5% (v/v) FCS (fetal calf serum) was added, and 5×10^5 CHOdhfr- cells were seeded. After incubation at 37° C. in the presence of 5% carbon dioxide for one day, the medium was aspirated and twice washed with ASF104 medium. 5 μg of the above plasmid pHARp206 was dissolved in 50 μl of HBS buffer (8.0 g/l sodium chloride, 380 mg/l potassium chloride, 200 mg/l disodium monohydrogen phosphate, 5.9 g/l HEPES, 15 mg/l calcium chloride dihydrate, 10 mg/l magnesium chloride hexahydrate, pH 7.45). […]\nAfter the above transformant cells CHOdhfr-/pHARp206 were twice washed with HEPES buffer (140 mM sodium chloride, 5 mM potassium chloride, 1 mM magnesium sulfate, 1 mM disodium monohydrogen phosphate, 1 mM calcium chloride, 25 mM glucose, 25 mM HEPES; pH 7.2), 4 ml of a HEPES buffer containing 4 μM Fura-2AM (Dojin Kagaku) was added, and the mixture was kept standing at 15° C. in the dark for 80 minutes. […] Fluorescence at a wavelength of 505 nm, generated upon excitation with ultraviolet rays of wavelengths of 340 nm and 380 nm, was measured."}}, "note": "Substitutions are numbered along the chain they refer to."}
{"compound": "CCCCc1nc(Cl)c(CC(=O)[O-])n1Cc1ccccc1[N+](=O)[O-].[Na+]", "note": "[CV2961]", "values": [{"measurement": "Ang II receptor antagonist activity", "setting": "Ang II receptor", "value": "found to possess Ang II receptor antagonist activity"}]}
{"compound": "CCOc1nc2cccc(C(=O)O)c2n1Cc1ccc(-c2ccccc2-c2nn[nH]n2)cc1", "note": "[CV-11974]", "values": [{"measurement": "Competition; IC50 [-log(M)], column A (second; B in text)", "setting": "[1]", "value": "9.61 -log(M)"}, {"measurement": "IC50", "setting": "[2]; read-out: Competition, IC50 [-log(M)] (converted)", "value": "3.31e-10", "unit": "M"}]}
{"compound": "CCCCc1nc(Cl)c(CO)n1Cc1ccc(-c2ccccc2-c2nn[nH]n2)cc1", "note": "[DuP753]", "values": [{"measurement": "specificity of action on Ang II receptors", "setting": "Ang II receptor; vascular wall, adrenal cortex and other organs", "value": "act specifically on Ang II receptors in the vascular wall, adrenal cortex and other organs to suppress Ang II action only"}, {"measurement": "antagonism of type 1 receptors", "setting": "type 1 receptors", "value": "antagonistic"}, {"measurement": "effect on reactions of KCl, norepinephrine, isoproterenol, vasopressin, bradykinin, acetylcholine or 5-HT", "setting": "[3]", "value": "no effect"}, {"measurement": "effect on ACE action", "setting": "ACE", "value": "no effect"}]}
{"compound": "Cc1cc(Cn2cnc3c2CC(C(=O)O)N(C(=O)C(c2ccccc2)c2ccccc2)C3)ccc1N", "note": "(stereo not drawn) [PD123177]", "values": [{"measurement": "Radioactivity (bound [125I]-labeled Ang II)", "setting": "[4]", "value": "69,980 cpm"}, {"measurement": "Competition; IC50 [-log(M)], column A (second; B in text)", "setting": "[1]", "value": "5.49 -log(M)"}, {"measurement": "Competition; IC50 [-log(M)]", "setting": "[2]", "value": "< 6.00 -log(M)"}, {"measurement": "antagonism of type 2 receptors", "setting": "type 2 receptors", "value": "antagonistic"}]}
{"compound": "C=C[C@@]1(C)CC(=O)[C@]2(O)[C@@]3(C)[C@@H](O)CCC(C)(C)[C@@H]3[C@H](O)[C@H](OC(C)=O)[C@@]2(C)O1", "note": "[forskolin]", "values": [{"measurement": "formation of cAMP", "setting": "[5]", "value": "about 80 pmol/well"}, {"measurement": "formation of cAMP", "setting": "[6]; 10 μM forskolin in place of Ang II", "value": "about 80 pmol/well"}]}
{"compound": "Ang II", "values": [{"measurement": "Radioactivity (bound [125I]-labeled Ang II)", "setting": "[4]", "value": 676, "unit": "cpm"}, {"measurement": "total IPs production, dose response", "setting": "[7]; 20 minutes after stimulation, final Ang II 1 pM to 10 μM, FIG. 7B", "value": "IPs production was suppressed in response to stimulation with high concentrations of Ang II"}, {"measurement": "IPs production, time course", "setting": "[7]; Ang II 100 nM, 37° C., FIG. 6", "value": "a transient rise in IP3 concentration occurred, followed by formation of IP2 and IP1 in this order"}, {"measurement": "affinity to Ang II", "setting": "[8]", "value": "high affinity"}, {"measurement": "total IPs production, dose response", "setting": "[9]; 20 minutes after stimulation, final Ang II 1 pM to 10 μM, FIG. 7A", "value": "IPs production was not suppressed even in the presence of high concentrations of Ang II"}, {"measurement": "IPs production, time course", "setting": "[9]; Ang II 100 nM, 37° C.", "value": "the same IPs production pattern as with CHO/pHARp306 cells"}, {"measurement": "suppression of forskolin-stimulated cAMP production", "setting": "[6]; 1 pM to 10 μM Ang II plus 10 μM forskolin, 10 minutes, FIG. 8A", "value": "cAMP production suppression depending on Ang II concentration"}]}
{"compound": "Ang III: amino acid number of Ang III is lower by 1 than that of Ang II; used as agonist", "values": [{"measurement": "Radioactivity (bound [125I]-labeled Ang II)", "setting": "[4]", "value": 670, "unit": "cpm"}, {"measurement": "Competition; IC50 [-log(M)], column A (second; B in text)", "setting": "[1]", "value": "9.07 -log(M)"}, {"measurement": "Competition; IC50 [-log(M)]", "setting": "[2]", "value": "7.57 -log(M)"}]}
{"compound": "endothelin 1: endothelin 1 (CSCSSLMDKECVYFCHLDIIW)", "values": [{"measurement": "change in fluorescence (intracellular Ca ion concentration)", "setting": "[10]", "value": "no change occurred in fluorescence"}]}
